Measured values reported in ChEMBL document CHEMBL3046250, “Synthesis and anticonvulsant evaluation of 3-substituted-4-(4-hexyloxyphenyl)-4H-1,2,4-triazoles” (Med Chem Res, 2009).

What was measured:
[1] = Neurotoxicity in Mus musculus (mouse) by rotarod test; assay type: toxicity, organism-based; conditions: in vivo
Mus musculus [2] = assay: Anticonvulsant activity in Mus musculus (mouse) assessed protection against subcutaneous pentylenetetrazole-induced seizures; assay type: functional; conditions: sc
[3] = Protective index, ratio of TD50 for neurotoxicity to ED50 for anticonvulsant activity in ip dosed Mus musculus C57B/6 (mouse); assay type: toxicity, organism-based; conditions: in vivo, read-out: Ratio TD50/ED50
[4] = Neurotoxicity in ip dosed Mus musculus C57B/6 (mouse) assessed as inability to maintain equilibrium measured after 30 min by rotarod test; assay type: toxicity, organism-based; conditions: in vivo
Mus musculus [5] = assay: Anticonvulsant activity in ip dosed Mus musculus C57B/6 (mouse) assessed as protection against maximal electroshock-induced seizures; assay type: functional; conditions: C57B/6, ip

Compound | TD50 [1] [mg/kg] | ED50 (Mus musculus [2]) [mg/kg] | selectivity ratio [3] | TD50 at 0.5 h [4] [mg/kg] | ED50 (Mus musculus [5]) [mg/kg]
O=C1CCc2cc(OCc3ccccc3)ccc2N1 | > 300 |  |  |  | 
c1ccc(COc2ccc3c(c2)CCc2nncn2-3)cc1 |  | 24 |  |  | 
CCCCCCOc1ccc2c(c1)CCc1nncn1-2 |  |  | 2.2 |  | 
CCCCCCOc1ccc(-n2cnnc2CCC)cc1 |  |  | 11.5 | 65.7 | 5.7
CCCCCCOc1ccc(-n2cnnc2CCCC)cc1 |  |  | 8.1 | 110 | 13.6
CCCCCCOc1ccc(-n2cnnc2CCCCC)cc1 |  |  | 5.8 | 189 | 32.8
CCCCCCOc1ccc(-n2cnnc2CCCCCC)cc1 |  |  |  |  | > 40
CCCCCCCc1nncn1-c1ccc(OCCCCCC)cc1 |  |  |  |  | > 40
CCCCCCCCCc1nncn1-c1ccc(OCCCCCC)cc1 |  |  |  |  | > 40
CCCCCCOc1ccc(-n2cnnc2-c2ccccc2)cc1 |  |  | 7.2 | 137 | 19
CCCCCCOc1ccc(-n2cnnc2-c2ccc(F)cc2)cc1 |  |  | 4.2 | 91.3 | 22
CCCCCCOc1ccc(-n2cnnc2-c2ccccc2F)cc1 |  |  | 5 | 101 | 20.2
CCCCCCOc1ccc(-n2cnnc2-c2cccc(F)c2)cc1 |  |  | 3.8 | 104 | 27.4
CCCCCCOc1ccc(-n2cnnc2-c2ccc(Cl)cc2)cc1 |  |  | 6.9 | 137 | 19.7
CCCCCCOc1ccc(-n2cnnc2-c2ccccc2Cl)cc1 |  |  | 6.9 | 91.2 | 13.2
CCCCCCOc1ccc(-n2cnnc2-c2ccc(C)cc2)cc1 |  |  | 8.8 | 101 | 11.4
CCCCCCOc1ccc(-n2cnnc2-c2ccc(OC)cc2)cc1 |  |  | 7.6 | 120 | 15.8
CCCCCCOc1ccc(-n2cnnc2Cc2ccccc2)cc1 |  |  | 6.9 | 131 | 19
CCCCCCOc1ccc(-n2cnnc2CCc2ccccc2)cc1 |  |  | 5.7 | 158 | 27.4
CCCCCCOc1ccc(-n2cnnc2)cc1 |  |  | 11.4 | 112 | 9.8
CCCCCCOc1ccc(-n2cnnc2C)cc1 |  |  | 4.9 | 114 | 22.8
CCCCCCOc1ccc(-n2cnnc2CC)cc1 |  |  | 4.7 |  | 
